Source: patent US8901105B2, “Prodrug derivatives of (E)-N-methyl-N-((3-M ethylbenzofuran-2-yl)methyl)-3-(7-oxo-5,6,7,8-tetrahydro-1,8-naphthyridin-3-yl)acrylamide” (Affinium Pharmaceuticals, Inc., priority 2012, dated 2014)
≈ marks a conversion by molar mass, not a printed value. Structures can show the parent of a compound that is named as a salt. Where two headings read alike, the source gives them in different places.

Columns and labels:
[1] = Aqueous solubility of salts at 25° C.; type: physicochemical; conditions: water, 25° C., mg free acid equivalent/mL; for Solubility in Water: dipotassium salt
[2] = Solid-state stability (HPLC % area after storage); type: physicochemical; conditions: 4 weeks
Experimental: Various compounds disclosed herein have been placed on long-term solid-state stability protocol. The compounds were stored in glass vials closed with PTFE lined caps at 30° C./65% RH, 40° C./75% RH, 50° C. and 60° C. (ambient humidity). The results of the study after 4 weeks are shown in Table B1 and after 3 months in Table B2. Appearance and purity analysis were conducted using HPLC and XPRD. The HPLC analyses were conducted using standard equipment such as a Agilent HP1100 HPLC (Station ID: LZPES HPLC 04) with YMC-Pack ODS-AQ sub 3 μm, 150×4.6 mm

[3] = tested on: Streptococcus pneumoniae; assay: Broth microdilution MIC; type: cell-based; conditions: ATCC49619, S. pneumoniae ATCC 49619, read-out: MIC
Experimental: (§1) Bacterial Isolates. Organisms tested in this study are listed in Table P. Clinical isolates consisted of 5 Staphylococcus aureus (MSSA), 3 Staphylococcus aureus (HA-MRSA), 2 Staphylococcus aureus (CA-MRSA), 2 Enterococcus faecalis (VSE), 2 Streptococcus pyogenes, and 2 Escherichia coli (susceptible to most antibiotics). S. aureus ATCC 29213, E. faecalis ATCC 29212, S. pneumoniae ATCC 49619, and E. coli ATCC 25922 were tested for the purposes of quality control.
(§2) Minimal Inhibitory Concentrations (MIC) values against the selected isolates were determined using the reference broth microdilution method according to the Clinical Laboratory Standards Institute (CLSI) guidelines.
(§3) The MIC was read and recorded as the lowest concentration of drug that inhibited visible growth of the organism.

[4] = tested on: Enterococcus faecalis; assay: Broth microdilution MIC; type: cell-based
Experimental: as §1, §2, §3

[5] = tested on: Staphylococcus aureus; assay: Broth microdilution MIC; type: cell-based; conditions: Staphylococcus aureus, read-out: MIC
Experimental: as §1, §2, §3

[6] = tested on: Streptococcus pyogenes; assay: Broth microdilution MIC; type: cell-based
Experimental: as §1, §2, §3

[7] = tested on: Escherichia coli; assay: Broth microdilution MIC; type: cell-based; conditions: Escherichia coli, read-out: MIC
Experimental: as §1, §2, §3

[8] = ATCC29212, E. faecalis ATCC 29212, read-out: MIC
[9] = E. faecalis 4158, VSE, read-out: MIC
[10] = E. faecalis 4212, VSE, read-out: MIC
[11] = ATCC29213, S. aureus ATCC 29213
[12] = Streptococcus pyogenes, S. pyogenes 6179, read-out: MIC

MIC [3]	MIC [4, 8]	MIC [4, 9]	MIC [4, 10]	MIC [5, 11]	MIC ([5]; MRSA, S. aureus 3083, HA-MRSA)	MIC ([5]; MRSA, S. aureus 3086, HA-MRSA)	MIC ([5]; MRSA, S. aureus 3265, HA-MRSA)	MIC ([5]; MSSA, S. aureus 3104, MSSA)	MIC ([5]; MSSA, S. aureus 3107, MSSA)	MIC ([5]; MSSA, S. aureus 3245, MSSA)	MIC ([5]; MSSA, S. aureus 3250, MSSA)	MIC ([5]; MSSA, S. aureus 3856, MSSA)	MIC ([5]; S. aureus 2168, CAMRSA)	MIC ([5]; S. aureus 2294, CAMRSA)	MIC ([6]; S. pyogenes 6528)	MIC [6, 12]	MIC ([7]; ATCC25922, E. coli ATCC 25922)	MIC ([7]; E. coli 2214)	MIC ([7]; E. coli 5255)	Compound	other results
–	–	–	–	–	–	–	–	–	–	–	–	–	–	–	–	–	–	–	–	Cc1c(CN(C)C(=O)/C=C/c2cnc3c(c2)CCC(=O)N3COP2(=O)[O][Mg][O]2)oc2ccccc12 [Compound 12, (E)-6-[(N-methyl-((3-methylbenzofuran-2-yl)methyl)amino)-3-oxoprop-1-en-1-yl)-2-oxo-3,4-dihydro-1,8-naphthyridin-1 (2H)-yl]methylphosphate magnesium salt]	solubility ([1]; thermodynamic from solid, read-out: Solubility in Water): < 1 mg/mL
–	–	–	–	–	–	–	–	–	–	–	–	–	–	–	–	–	–	–	–	(E)-6-[(N-methyl-((3-methylbenzofuran-2-yl)methyl)amino)-3-oxoprop-1-en-1-yl)-2-oxo-3,4-dihydro-1,8-naphthyridin-1(2H)-yl]methylphosphate dipotassium salt [Bis-Potassium (crystalline) (Compound 11)]	Solubility in Water [1]: 30 to 35 mg/mL; Solid-state stability % Area ([2]; 30° C./65% RH): 87.8 % Area; Solid-state stability % Area ([2]; 40° C./75% RH): 64.3 % Area; Solid-state stability % Area ([2]; 50° C./ambient humidity): 72.5 % Area; Solid-state stability % Area ([2]; 60° C./ambient humidity): 50.7 % Area; Solid-state stability % Area ([2]; Control (ambient lab conditions protected from light)): 95.4 % Area
–	–	–	–	–	–	–	–	–	–	–	–	–	–	–	–	–	–	–	–	(E)-6-[(N-methyl-((3-methylbenzofuran-2-yl)methyl)amino)-3-oxoprop-1-en-1-yl)-2-oxo-3,4-dihydro-1,8-naphthyridin-1(2H)-yl]methylphosphate dipotassium salt [Bis-Potassium (amorphous) (Compound 11)]	Solubility in Water [1]: >100 mg/mL
1 µg/mL (≈ 2.96 µM)	1 µg/mL (≈ 2.96 µM)	1 µg/mL (≈ 2.96 µM)	1 µg/mL (≈ 2.96 µM)	4 µg/mL (≈ 11.9 µM)	2 µg/mL (≈ 5.93 µM)	2 µg/mL (≈ 5.93 µM)	2 µg/mL (≈ 5.93 µM)	2 µg/mL (≈ 5.93 µM)	2 µg/mL (≈ 5.93 µM)	2 µg/mL (≈ 5.93 µM)	4 µg/mL (≈ 11.9 µM)	2 µg/mL (≈ 5.93 µM)	2 µg/mL (≈ 5.93 µM)	2 µg/mL (≈ 5.93 µM)	1 µg/mL (≈ 2.96 µM)	1 µg/mL (≈ 2.96 µM)	64 µg/mL (≈ 190 µM)	> 64 µg/mL	64 µg/mL (≈ 190 µM)	CC(=O)NC[C@H]1CN(c2ccc(N3CCOCC3)c(F)c2)C(=O)O1 [Linezolid]	–
> 2 µg/mL	> 2 µg/mL	> 2 µg/mL	> 2 µg/mL	0.004 µg/mL (≈ 0.0107 µM)	0.004 µg/mL (≈ 0.0107 µM)	0.03 µg/mL (≈ 0.0799 µM)	0.004 µg/mL (≈ 0.0107 µM)	0.015 µg/mL (≈ 0.04 µM)	0.004 µg/mL (≈ 0.0107 µM)	0.015 µg/mL (≈ 0.04 µM)	0.004 µg/mL (≈ 0.0107 µM)	0.004 µg/mL (≈ 0.0107 µM)	0.004 µg/mL (≈ 0.0107 µM)	0.03 µg/mL (≈ 0.0799 µM)	>2 µg/mL	> 2 µg/mL	> 2 µg/mL	> 2 µg/mL	> 2 µg/mL	Cc1c(CN(C)C(=O)/C=C/c2cnc3c(c2)CCC(=O)N3)oc2ccccc12 [Compound Z, (E)-N-methyl-N-((3-methylbenzofuran-2-yl)methyl)-3-(7-oxo-5,6,7,8-tetrahydro-1,8-naphthyridin-3-yl)acrylamide]	–
0.5 µg/mL (≈ 1.51 µM)	0.5 µg/mL (≈ 1.51 µM)	64 µg/mL (≈ 193 µM)	32 µg/mL (≈ 96.6 µM)	0.5 µg/mL (≈ 1.51 µM)	32 µg/mL (≈ 96.6 µM)	> 64 µg/mL	> 64 µg/mL	0.25 µg/mL (≈ 0.754 µM)	0.5 µg/mL (≈ 1.51 µM)	0.5 µg/mL (≈ 1.51 µM)	2 µg/mL (≈ 6.04 µM)	> 64 µg/mL	16 µg/mL (≈ 48.3 µM)	> 64 µg/mL	0.5 µg/mL (≈ 1.51 µM)	0.5 µg/mL (≈ 1.51 µM)	0.008 µg/mL (≈ 0.0241 µM)	0.015 µg/mL (≈ 0.0453 µM)	0.008 µg/mL (≈ 0.0241 µM)	O=C(O)c1cn(C2CC2)c2cc(N3CCNCC3)c(F)cc2c1=O [Ciprofloxacin]	–
